{
  "source": "ChEMBL document CHEMBL1146483",
  "about": "“Antitumor activity of bruceantin: an old drug with new promise” (J Nat Prod, 2004)",
  "key": {"HL-60 [1]": {"tested_on": "HL-60", "test": "Cytotoxicity against human HL60 cells by trypan blue exclusion method", "type": "functional, cell-based"}, "U-937": {"tested_on": "U-937", "test": "Cytotoxicity against human U937 cells by trypan blue exclusion method", "type": "functional, cell-based"}, "RPMI-8226 [2]": {"tested_on": "RPMI-8226", "test": "Induction of apoptosis in human RPMI8226 cells after 24 hrs by DAPI staining", "type": "functional, cell-based", "details": "RPMI-8226, 24 h"}, "NCI-H929": {"tested_on": "NCI-H929", "test": "Induction of apoptosis in human NCI-H929 cells after 24 hrs by DAPI staining", "type": "functional, cell-based", "details": "NCI-H929, 24 h"}, "Kasumi 1": {"tested_on": "Kasumi 1", "test": "Cytotoxicity against human Kasumi-1 cells by trypan blue exclusion method", "type": "functional, cell-based"}, "K562": {"tested_on": "K562", "test": "Cytotoxicity against human K562 cells assessed as cell viability at 50 ng/mL after 4 days by trypan blue exclusion method", "type": "functional", "details": "K562, 96 h, read-out: Activity"}, "BV-173": {"tested_on": "BV-173", "test": "Cytotoxicity against human BV173 cells by trypan blue exclusion method", "type": "functional, cell-based"}, "RPMI-8226 [3]": {"tested_on": "RPMI-8226", "test": "Antitumor activity in human RPMI8226 cells xenografted in SCID mouse assessed as induction of apoptosis in peripheral proliferating areas at 5 to 12 mg mg/kg, ip administered every 3 days", "type": "functional"}, "REH": {"tested_on": "REH", "test": "Cytotoxicity against human REH cells by trypan blue exclusion method", "type": "functional, cell-based"}, "[4]": {"test": "Cytotoxicity against human DHL6 cells by trypan blue exclusion method", "type": "functional, cell-based", "details": "SU-DHL-6"}, "U-266": {"tested_on": "U-266", "test": "Induction of apoptosis in human U266 cells after 24 hrs by DAPI staining", "type": "functional, cell-based", "details": "U-266, 24 h"}, "NB-4": {"tested_on": "NB-4", "test": "Cytotoxicity against human NB4 cells by trypan blue exclusion method", "type": "functional, cell-based"}, "[5]": {"test": "Cytotoxicity against human SUP-B13 cells by trypan blue exclusion method", "type": "functional, cell-based"}, "[6]": {"test": "Cytotoxicity against human RS4:11 cells by trypan blue exclusion method", "type": "functional, cell-based"}, "HL-60 [7]": {"tested_on": "HL-60", "test": "Induction of apoptosis in human HL60 cells after 24 hrs by DAPI staining", "type": "functional, cell-based", "details": "HL-60, 24 h"}, "Daudi": {"tested_on": "Daudi", "test": "Cytotoxicity against human Daudi cells by trypan blue exclusion method", "type": "functional, cell-based"}, "[8]": {"test": "Cytotoxicity against concanavalin-stimulated human lymphocytes cells assessed as cell viability at 50 ng/mL after 4 days by trypan blue exclusion method", "type": "cell-based, Lymphocyte", "details": "read-out: Activity"}},
  "data": [
    {"smiles": "COC(=O)[C@@]12OC[C@]34[C@H]([C@@H](O)[C@@H]1O)[C@@]1(C)CC(=O)C(O)=C(C)[C@@H]1C[C@H]3OC(=O)[C@H](OC(=O)/C=C(\\C)C(C)C)[C@@H]24", "note": "[BRUCEANTIN]", "values": [
      {"measurement": "IC50", "setting": "HL-60 [1]", "value": 0.02, "unit": "µg/mL"},
      {"measurement": "IC50", "setting": "U-937", "value": "< 0.015", "unit": "µg/mL"},
      {"measurement": "IC50", "setting": "RPMI-8226 [2]", "value": 0.0128, "unit": "µM"},
      {"measurement": "IC50", "setting": "NCI-H929", "value": 0.115, "unit": "µM"},
      {"measurement": "IC50", "setting": "Kasumi 1", "value": 0.02, "unit": "µg/mL"},
      {"measurement": "viability at 0.05 µg/mL", "setting": "K562", "value": 90, "unit": "%"},
      {"measurement": "IC50", "setting": "BV-173", "value": "< 0.015", "unit": "µg/mL"},
      {"measurement": "Activity", "setting": "RPMI-8226 [3]", "value": 36.6, "unit": "%"},
      {"measurement": "IC50", "setting": "REH", "value": 0.02, "unit": "µg/mL"},
      {"measurement": "IC50", "setting": "[4]", "value": "< 0.015", "unit": "µg/mL"},
      {"measurement": "IC50", "setting": "U-266", "value": 0.049, "unit": "µM"},
      {"measurement": "IC50", "setting": "NB-4", "value": "< 0.015", "unit": "µg/mL"},
      {"measurement": "IC50", "setting": "[5]", "value": "< 0.015", "unit": "µg/mL"},
      {"measurement": "IC50", "setting": "[6]", "value": "< 0.015", "unit": "µg/mL"},
      {"measurement": "IC50", "setting": "HL-60 [7]", "value": 0.0122, "unit": "µM"},
      {"measurement": "IC50", "setting": "Daudi", "value": "< 0.015", "unit": "µg/mL"},
      {"measurement": "viability at 96 h, 50 ng/mL", "setting": "[8]", "value": 90, "unit": "%"}
    ]}
  ]
}
